Source: PubChem BioAssay (NCI)
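Assay format: 96-well plates, 48-hour exposure. GI50 is the concentration that inhibits growth by half. TGI is the concentration that stops growth completely.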

Legend:
Experiment in all cases: DTP human tumour cell line panel, 48 h
SK-MEL-28 melanoma = test system: SK-MEL-28 melanoma
K-562 leukemia = test system: K-562 leukemia
ACHN renal = test system: ACHN renal
HOP-62 NSCLC = test system: HOP-62 NSCLC
DU-145 prostate = test system: DU-145 prostate
OVCAR-5 ovarian = test system: OVCAR-5 ovarian
SNB-75 CNS = test system: SNB-75 CNS
OVCAR-3 ovarian = test system: OVCAR-3 ovarian
A549 NSCLC = test system: A549 NSCLC
786-0 renal = test system: 786-0 renal
HCT-15 colon = test system: HCT-15 colon
NCI-H226 lung = test system: NCI-H226 lung
BT-549 breast = test system: BT-549 breast
SK-MEL-5 melanoma = test system: SK-MEL-5 melanoma
KM12 colon = test system: KM12 colon
TK-10 renal = test system: TK-10 renal
HOP-92 NSCLC = test system: HOP-92 NSCLC
SW-620 colon = test system: SW-620 colon
HT29 colon = test system: HT29 colon
NCI-H522 lung = test system: NCI-H522 lung
SNB-19 CNS = test system: SNB-19 CNS
T-47D breast = test system: T-47D breast
CCRF-CEM leukemia = test system: CCRF-CEM leukemia
HCT-116 colon = test system: HCT-116 colon
SN12C renal = test system: SN12C renal
SF-539 CNS = test system: SF-539 CNS
HCC-2998 colon = test system: HCC-2998 colon
OVCAR-8 ovarian = test system: OVCAR-8 ovarian
SK-MEL-2 melanoma = test system: SK-MEL-2 melanoma
RXF 393 renal = test system: RXF 393 renal
EKVX NSCLC = test system: EKVX NSCLC
M14 melanoma = test system: M14 melanoma
A498 renal = test system: A498 renal
U251 CNS = test system: U251 CNS
SF-268 CNS = test system: SF-268 CNS
UO-31 renal = test system: UO-31 renal
CAKI-1 renal = test system: CAKI-1 renal
UACC-257 melanoma = test system: UACC-257 melanoma
COLO 205 colon = test system: COLO 205 colon
SF-295 CNS = test system: SF-295 CNS
SK-OV-3 ovarian = test system: SK-OV-3 ovarian
NCI-H460 lung = test system: NCI-H460 lung
MDA-MB-435 = test system: MDA-MB-435
MDA-MB-231 breast = test system: MDA-MB-231 breast
HS 578T breast = test system: HS 578T breast
LOX IMVI melanoma = test system: LOX IMVI melanoma
RPMI-8226 leukemia = test system: RPMI-8226 leukemia
MOLT-4 leukemia = test system: MOLT-4 leukemia
NCI/ADR-RES ovarian = test system: NCI/ADR-RES ovarian
SR leukemia = test system: SR leukemia
IGROV1 ovarian = test system: IGROV1 ovarian
PC-3 prostate = test system: PC-3 prostate
UACC-62 melanoma = test system: UACC-62 melanoma
OVCAR-4 ovarian = test system: OVCAR-4 ovarian
HL-60(TB) leukemia = test system: HL-60(TB) leukemia
MALME-3M melanoma = test system: MALME-3M melanoma
MCF7 breast = test system: MCF7 breast

## Nc1nc(N)c2c(n1)NC(c1ccc(C(F)(F)F)cc1)CC(c1ccc(Nc3nc(NCCO)nc(Nc4ccc(Cl)cc4)n3)cc1)=N2 (stereo not drawn)
SK-MEL-28 melanoma
  GI50: 1530 nM
  TGI: 2860 nM
K-562 leukemia
  GI50: 642 nM
  TGI: > 100000 nM
ACHN renal
  GI50: 1500 nM
  TGI: 2820 nM
HOP-62 NSCLC
  GI50: 1630 nM
  TGI: 3160 nM
DU-145 prostate
  GI50: 1510 nM
  TGI: 2840 nM
OVCAR-5 ovarian
  GI50: 1600 nM
  TGI: 3000 nM
SNB-75 CNS
  GI50: 1700 nM
  TGI: 3930 nM
OVCAR-3 ovarian
  GI50: 1320 nM
  TGI: 2940 nM
A549 NSCLC
  GI50: 1730 nM
  TGI: 3500 nM
786-0 renal
  GI50: 1390 nM
  TGI: 2910 nM
HCT-15 colon
  GI50: 1150 nM
  TGI: 2580 nM
NCI-H226 lung
  GI50: 1840 nM
  TGI: 3910 nM
BT-549 breast
  GI50: 1570 nM
  TGI: 3160 nM
SK-MEL-5 melanoma
  GI50: 1550 nM
  TGI: 2890 nM
KM12 colon
  GI50: 1370 nM
  TGI: 2880 nM
TK-10 renal
  GI50: 1780 nM
  TGI: 3170 nM
HOP-92 NSCLC
  GI50: 1480 nM
  TGI: 3430 nM
SW-620 colon
  GI50: 1600 nM
  TGI: 3360 nM
HT29 colon
  GI50: 1360 nM
  TGI: 2990 nM
NCI-H522 lung
  GI50: 1340 nM
  TGI: 2720 nM
SNB-19 CNS
  GI50: 1510 nM
  TGI: 2950 nM
T-47D breast
  GI50: 1550 nM
  TGI: 3690 nM
CCRF-CEM leukemia
  GI50: 1230 nM
  TGI: > 100000 nM
HCT-116 colon
  GI50: 1050 nM
  TGI: 2410 nM
SN12C renal
  GI50: 1760 nM
  TGI: 3340 nM
SF-539 CNS
  GI50: 1560 nM
  TGI: 2970 nM
HCC-2998 colon
  GI50: 1310 nM
  TGI: 2620 nM
OVCAR-8 ovarian
  GI50: 1500 nM
  TGI: 2940 nM
SK-MEL-2 melanoma
  GI50: 1670 nM
  TGI: 3070 nM
RXF 393 renal
  GI50: 1140 nM
  TGI: 2500 nM
EKVX NSCLC
  GI50: 1520 nM
  TGI: 2960 nM
M14 melanoma
  GI50: 1640 nM
  TGI: 3060 nM
A498 renal
  GI50: 1560 nM
  TGI: 2900 nM
U251 CNS
  GI50: 1240 nM
  TGI: 2530 nM
SF-268 CNS
  GI50: 1660 nM
  TGI: 3470 nM
UO-31 renal
  GI50: 1430 nM
  TGI: 2760 nM
CAKI-1 renal
  GI50: 1450 nM
  TGI: 2850 nM
UACC-257 melanoma
  GI50: 1750 nM
  TGI: 3190 nM
COLO 205 colon
  GI50: 1330 nM
  TGI: 2640 nM
SF-295 CNS
  GI50: 1790 nM
  TGI: 3320 nM
SK-OV-3 ovarian
  GI50: 1830 nM
  TGI: 3450 nM
NCI-H460 lung
  GI50: 1960 nM
  TGI: 4010 nM
MDA-MB-435
  GI50: 1400 nM
  TGI: 2720 nM

## O=C1Nc2cc(OC(F)(F)F)ccc2Oc2ccc(-c3ccnc(N4CC[C@H](O)C4)c3)cc21
SK-MEL-28 melanoma
  GI50: 1200 nM
  TGI: 2600 nM
MDA-MB-231 breast
  GI50: 48 nM
  TGI: 1830 nM
K-562 leukemia
  GI50: < 10 nM
  TGI: 1730 nM
ACHN renal
  GI50: 55.2 nM
  TGI: 5150 nM
HOP-62 NSCLC
  GI50: 35.1 nM
  TGI: 4530 nM
DU-145 prostate
  GI50: 44.6 nM
  TGI: 4380 nM
OVCAR-5 ovarian
  GI50: 49.2 nM
  TGI: 6370 nM
SNB-75 CNS
  GI50: < 16.3 nM
  TGI: 1120 nM
OVCAR-3 ovarian
  GI50: < 11.7 nM
  TGI: 1330 nM
HS 578T breast
  GI50: 23.9 nM
  TGI: 5590 nM
A549 NSCLC
  GI50: 39.2 nM
  TGI: 3460 nM
LOX IMVI melanoma
  GI50: 32 nM
  TGI: 1490 nM
RPMI-8226 leukemia
  GI50: 34.9 nM
  TGI: 2050 nM
MOLT-4 leukemia
  GI50: 32.7 nM
  TGI: 2160 nM
786-0 renal
  GI50: 31.6 nM
  TGI: 2740 nM
HCT-15 colon
  GI50: 10.3 nM
  TGI: 2860 nM
NCI-H226 lung
  GI50: 280 nM
  TGI: 5540 nM
BT-549 breast
  GI50: 138 nM
  TGI: 1690 nM
SK-MEL-5 melanoma
  GI50: 37.8 nM
  TGI: 487 nM
KM12 colon
  GI50: < 15.2 nM
  TGI: 2470 nM
TK-10 renal
  GI50: 7650 nM
  TGI: 17300 nM
HOP-92 NSCLC
  GI50: 1810 nM
  TGI: 18700 nM
SW-620 colon
  GI50: < 17.7 nM
  TGI: 1660 nM
HT29 colon
  GI50: 16.3 nM
  TGI: 261 nM
NCI-H522 lung
  GI50: < 13.1 nM
  TGI: 42.9 nM
SNB-19 CNS
  GI50: 36.6 nM
  TGI: 5740 nM
CCRF-CEM leukemia
  GI50: 25.1 nM
  TGI: 2600 nM
HCT-116 colon
  GI50: < 10 nM
  TGI: 1190 nM
SN12C renal
  GI50: 103 nM
  TGI: 2680 nM
SF-539 CNS
  GI50: 22.7 nM
  TGI: 1040 nM
NCI/ADR-RES ovarian
  GI50: 30.6 nM
  TGI: 6250 nM
HCC-2998 colon
  GI50: 30 nM
  TGI: 1550 nM
SR leukemia
  GI50: < 10 nM
  TGI: 2210 nM
OVCAR-8 ovarian
  GI50: 34.3 nM
  TGI: 651 nM
IGROV1 ovarian
  GI50: 43.1 nM
  TGI: 8780 nM
SK-MEL-2 melanoma
  GI50: 32.1 nM
  TGI: 18500 nM
PC-3 prostate
  GI50: 19.4 nM
  TGI: 5480 nM
RXF 393 renal
  GI50: < 15.4 nM
  TGI: 323 nM
UACC-62 melanoma
  GI50: < 17.3 nM
  TGI: 5240 nM
EKVX NSCLC
  GI50: 43.5 nM
  TGI: 20400 nM
OVCAR-4 ovarian
  GI50: 1120 nM
  TGI: 3000 nM
M14 melanoma
  GI50: 11.4 nM
  TGI: 1810 nM
A498 renal
  GI50: 10600 nM
  TGI: 25900 nM
U251 CNS
  GI50: 35.8 nM
  TGI: 1850 nM
SF-268 CNS
  GI50: 485 nM
  TGI: 15800 nM
UO-31 renal
  GI50: 57 nM
  TGI: 5630 nM
CAKI-1 renal
  GI50: < 10 nM
  TGI: 9640 nM
UACC-257 melanoma
  GI50: 3600 nM
  TGI: 9370 nM
COLO 205 colon
  GI50: 18.1 nM
  TGI: 51.3 nM
SF-295 CNS
  GI50: 16.6 nM
  TGI: 6260 nM
SK-OV-3 ovarian
  GI50: 36.7 nM
  TGI: 14700 nM
NCI-H460 lung
  GI50: < 12.9 nM
  TGI: 1060 nM
HL-60(TB) leukemia
  GI50: < 10 nM
  TGI: 105 nM
MALME-3M melanoma
  GI50: 48.9 nM
  TGI: 2090 nM
MCF7 breast
  GI50: < 10 nM
  TGI: 1620 nM
MDA-MB-435
  GI50: < 10 nM
  TGI: < 11.6 nM
